Experimental data taken from ChEMBL document CHEMBL4507277.

Key:
[1] = target: Receptor-type tyrosine-protein kinase FLT3 (Homo sapiens) (UniProt P36888); conditions: Compound concentration 1000.0 nM
[2] = target: Serine/threonine-protein kinase RIO1 (Homo sapiens) (UniProt Q9BRS2); conditions: Compound concentration 1000.0 nM
[3] = target: Casein kinase I isoform epsilon (Homo sapiens) (UniProt P49674); conditions: Compound concentration 1000.0 nM
[4] = target: Serine/threonine-protein kinase NIM1 (Homo sapiens) (UniProt Q8IY84); conditions: Compound concentration 1000.0 nM
[5] = target: Serine/threonine-protein kinase MRCK beta (Homo sapiens) (UniProt Q9Y5S2); conditions: Compound concentration 1000.0 nM
[6] = target: 5-hydroxytryptamine receptor 1B (Homo sapiens) (UniProt P28222); conditions: Compound concentration 10.0 uM
[7] = target: Serine/threonine-protein kinase Nek11 (Homo sapiens) (UniProt Q8NG66); conditions: Compound concentration 1000.0 nM
[8] = target: 5-hydroxytryptamine receptor 6 (Homo sapiens) (UniProt P50406); conditions: Compound concentration 10.0 uM
[9] = target: Sodium-dependent dopamine transporter (Homo sapiens) (UniProt Q01959); conditions: Compound concentration 10.0 uM
[10] = target: Serine/threonine-protein kinase Nek9 (Homo sapiens) (UniProt Q8TD19); conditions: Compound concentration 1000.0 nM
[11] = target: Tyrosine-protein kinase Tec (Homo sapiens) (UniProt P42680); conditions: Compound concentration 1000.0 nM
[12] = target: SRSF protein kinase 2 (Homo sapiens) (UniProt P78362); conditions: Compound concentration 1000.0 nM
[13] = target: Tyrosine-protein kinase FRK (Homo sapiens) (UniProt P42685); conditions: Compound concentration 1000.0 nM
[14] = target: Cyclin-dependent kinase 11B (Homo sapiens) (UniProt P21127); conditions: Compound concentration 1000.0 nM
[15] = target: Tyrosine-protein kinase Yes (Homo sapiens) (UniProt P07947); conditions: Compound concentration 1000.0 nM
[16] = target: Mitogen-activated protein kinase 10 (Homo sapiens) (UniProt P53779); conditions: Compound concentration 1000.0 nM
[17] = target: Receptor-interacting serine/threonine-protein kinase 4 (Homo sapiens) (UniProt P57078); conditions: Compound concentration 1000.0 nM
[18] = target: Receptor-interacting serine/threonine-protein kinase 1 (Homo sapiens) (UniProt Q13546); conditions: Compound concentration 1000.0 nM
[19] = target: Serine/threonine-protein kinase PAK 4 (Homo sapiens) (UniProt O96013); conditions: Compound concentration 1000.0 nM
[20] = test system: Tyrosine-protein kinase ABL1 (Homo sapiens), P00519 [F317I]; conditions: Compound concentration 1000.0 nM
[21] = test system: Receptor-type tyrosine-protein kinase FLT3 (Homo sapiens), P36888 [N841I]; conditions: Compound concentration 1000.0 nM
[22] = target: Serine/threonine-protein kinase MARK2 (Homo sapiens) (UniProt Q7KZI7); conditions: Compound concentration 1000.0 nM
[23] = target: Calcium/calmodulin-dependent protein kinase type II subunit alpha (Homo sapiens) (UniProt Q9UQM7); conditions: Compound concentration 1000.0 nM
[24] = target: Ephrin type-B receptor 6 (Homo sapiens) (UniProt O15197); conditions: Compound concentration 1000.0 nM
[25] = target: Activin receptor type-1-like (Homo sapiens) (UniProt P37023); conditions: Compound concentration 1000.0 nM
[26] = target: Tyrosine-protein kinase Fgr (Homo sapiens) (UniProt P09769); conditions: Compound concentration 1000.0 nM
[27] = target: 5-hydroxytryptamine receptor 1E (Homo sapiens) (UniProt P28566); conditions: Compound concentration 10.0 uM
[28] = target: Dual specificity protein kinase CLK3 (Homo sapiens) (UniProt P49761); conditions: Compound concentration 1000.0 nM
[29] = target: Cytoplasmic tyrosine-protein kinase BMX (Homo sapiens) (UniProt P51813); conditions: Compound concentration 1000.0 nM
[30] = target: Mitogen-activated protein kinase kinase kinase 2 (Homo sapiens) (UniProt Q9Y2U5); conditions: Compound concentration 1000.0 nM
[31] = target: Serine/threonine-protein kinase tousled-like 2 (Homo sapiens) (UniProt Q86UE8); conditions: Compound concentration 1000.0 nM
[32] = target: Serine/threonine-protein kinase 17B (Homo sapiens) (UniProt O94768); conditions: Compound concentration 1000.0 nM
[33] = target: Cyclin-dependent kinase 5 (Homo sapiens) (UniProt Q00535); conditions: Compound concentration 1000.0 nM
[34] = target: RAC-gamma serine/threonine-protein kinase (Homo sapiens) (UniProt Q9Y243); conditions: Compound concentration 1000.0 nM
[35] = target: Mitogen-activated protein kinase 1 (Homo sapiens) (UniProt P28482); conditions: Compound concentration 1000.0 nM
[36] = target: 5-hydroxytryptamine receptor 1D (Homo sapiens) (UniProt P28221); conditions: Compound concentration 10.0 uM
[37] = target: Myosin-IIIb (Homo sapiens) (UniProt Q8WXR4); conditions: Compound concentration 1000.0 nM
[38] = target: Proto-oncogene tyrosine-protein kinase receptor Ret (Homo sapiens) (UniProt P07949); conditions: Compound concentration 1000.0 nM
[39] = target: Serine/threonine-protein kinase MAK (Homo sapiens) (UniProt P20794); conditions: Compound concentration 1000.0 nM
[40] = target: Cyclin-dependent kinase 19 (Homo sapiens) (UniProt Q9BWU1); conditions: Compound concentration 1000.0 nM
[41] = target: Tyrosine-protein kinase BTK (Homo sapiens) (UniProt Q06187); conditions: Compound concentration 1000.0 nM
[42] = target: Rho-associated protein kinase 1 (Homo sapiens) (UniProt Q13464); conditions: Compound concentration 1000.0 nM
[43] = target: Proto-oncogene tyrosine-protein kinase Src (Homo sapiens) (UniProt P12931); conditions: Compound concentration 1000.0 nM
[44] = target: Mitogen-activated protein kinase 8 (Homo sapiens) (UniProt P45983); conditions: Compound concentration 1000.0 nM
[45] = target: Bone morphogenetic protein receptor type-1A (Homo sapiens) (UniProt P36894); conditions: Compound concentration 1000.0 nM
[46] = target: Beta-3 adrenergic receptor (Homo sapiens) (UniProt P13945); conditions: Compound concentration 10.0 uM

Chain of Rho-associated protein kinase 1 (Homo sapiens) (Q13464 2-1354 limits assumed): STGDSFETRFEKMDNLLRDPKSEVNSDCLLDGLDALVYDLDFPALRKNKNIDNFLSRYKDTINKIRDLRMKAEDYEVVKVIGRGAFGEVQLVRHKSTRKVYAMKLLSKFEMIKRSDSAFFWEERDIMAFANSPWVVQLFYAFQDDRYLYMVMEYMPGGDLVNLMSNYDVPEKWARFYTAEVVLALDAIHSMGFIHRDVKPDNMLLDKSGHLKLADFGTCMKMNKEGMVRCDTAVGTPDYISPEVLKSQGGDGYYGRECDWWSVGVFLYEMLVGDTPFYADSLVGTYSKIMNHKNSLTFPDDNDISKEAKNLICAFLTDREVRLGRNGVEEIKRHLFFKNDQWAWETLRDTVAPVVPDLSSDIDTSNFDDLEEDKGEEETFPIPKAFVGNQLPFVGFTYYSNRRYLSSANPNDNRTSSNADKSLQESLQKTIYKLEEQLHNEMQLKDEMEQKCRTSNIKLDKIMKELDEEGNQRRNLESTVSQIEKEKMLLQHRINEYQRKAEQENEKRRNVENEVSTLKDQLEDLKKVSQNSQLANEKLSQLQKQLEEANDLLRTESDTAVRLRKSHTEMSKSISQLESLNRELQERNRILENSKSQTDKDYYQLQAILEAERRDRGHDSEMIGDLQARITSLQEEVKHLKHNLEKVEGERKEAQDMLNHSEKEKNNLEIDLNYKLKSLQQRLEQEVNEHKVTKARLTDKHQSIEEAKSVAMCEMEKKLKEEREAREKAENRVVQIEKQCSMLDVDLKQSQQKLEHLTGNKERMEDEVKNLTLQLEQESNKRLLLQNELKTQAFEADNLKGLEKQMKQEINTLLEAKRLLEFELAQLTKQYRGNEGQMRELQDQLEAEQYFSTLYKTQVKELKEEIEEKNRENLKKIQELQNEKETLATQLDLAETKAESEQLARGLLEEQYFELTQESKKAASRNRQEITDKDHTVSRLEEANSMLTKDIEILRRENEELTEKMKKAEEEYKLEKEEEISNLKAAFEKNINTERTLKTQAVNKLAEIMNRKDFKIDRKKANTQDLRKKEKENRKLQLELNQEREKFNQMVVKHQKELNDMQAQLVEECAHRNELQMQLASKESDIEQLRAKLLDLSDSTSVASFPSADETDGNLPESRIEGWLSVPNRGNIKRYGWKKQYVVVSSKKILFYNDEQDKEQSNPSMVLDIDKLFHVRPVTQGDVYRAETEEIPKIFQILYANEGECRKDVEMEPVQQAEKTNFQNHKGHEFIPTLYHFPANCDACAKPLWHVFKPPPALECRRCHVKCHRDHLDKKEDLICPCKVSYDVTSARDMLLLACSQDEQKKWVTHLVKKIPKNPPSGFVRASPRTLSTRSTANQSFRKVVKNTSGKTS
Chain of Tyrosine-protein kinase BTK (Homo sapiens) (Q06187 whole entry): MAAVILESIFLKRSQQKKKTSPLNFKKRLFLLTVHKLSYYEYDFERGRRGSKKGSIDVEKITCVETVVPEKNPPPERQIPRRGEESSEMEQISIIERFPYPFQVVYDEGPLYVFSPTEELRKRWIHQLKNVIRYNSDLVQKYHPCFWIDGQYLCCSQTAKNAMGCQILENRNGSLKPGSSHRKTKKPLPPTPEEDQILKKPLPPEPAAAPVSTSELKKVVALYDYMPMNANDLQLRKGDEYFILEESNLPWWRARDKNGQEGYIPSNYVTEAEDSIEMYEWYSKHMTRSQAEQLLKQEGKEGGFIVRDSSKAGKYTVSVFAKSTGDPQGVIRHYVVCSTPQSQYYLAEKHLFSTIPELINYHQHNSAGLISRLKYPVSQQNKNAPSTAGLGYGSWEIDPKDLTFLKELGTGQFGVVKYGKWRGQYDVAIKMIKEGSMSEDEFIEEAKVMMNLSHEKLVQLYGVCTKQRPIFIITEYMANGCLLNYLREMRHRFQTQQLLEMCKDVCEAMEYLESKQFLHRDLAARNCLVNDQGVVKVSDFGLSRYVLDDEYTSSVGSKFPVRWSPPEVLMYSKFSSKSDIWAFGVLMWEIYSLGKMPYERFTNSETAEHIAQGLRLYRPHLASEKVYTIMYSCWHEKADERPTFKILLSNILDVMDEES
Chain of Serine/threonine-protein kinase tousled-like 2 (Homo sapiens) (Q86UE8 whole entry, looked up): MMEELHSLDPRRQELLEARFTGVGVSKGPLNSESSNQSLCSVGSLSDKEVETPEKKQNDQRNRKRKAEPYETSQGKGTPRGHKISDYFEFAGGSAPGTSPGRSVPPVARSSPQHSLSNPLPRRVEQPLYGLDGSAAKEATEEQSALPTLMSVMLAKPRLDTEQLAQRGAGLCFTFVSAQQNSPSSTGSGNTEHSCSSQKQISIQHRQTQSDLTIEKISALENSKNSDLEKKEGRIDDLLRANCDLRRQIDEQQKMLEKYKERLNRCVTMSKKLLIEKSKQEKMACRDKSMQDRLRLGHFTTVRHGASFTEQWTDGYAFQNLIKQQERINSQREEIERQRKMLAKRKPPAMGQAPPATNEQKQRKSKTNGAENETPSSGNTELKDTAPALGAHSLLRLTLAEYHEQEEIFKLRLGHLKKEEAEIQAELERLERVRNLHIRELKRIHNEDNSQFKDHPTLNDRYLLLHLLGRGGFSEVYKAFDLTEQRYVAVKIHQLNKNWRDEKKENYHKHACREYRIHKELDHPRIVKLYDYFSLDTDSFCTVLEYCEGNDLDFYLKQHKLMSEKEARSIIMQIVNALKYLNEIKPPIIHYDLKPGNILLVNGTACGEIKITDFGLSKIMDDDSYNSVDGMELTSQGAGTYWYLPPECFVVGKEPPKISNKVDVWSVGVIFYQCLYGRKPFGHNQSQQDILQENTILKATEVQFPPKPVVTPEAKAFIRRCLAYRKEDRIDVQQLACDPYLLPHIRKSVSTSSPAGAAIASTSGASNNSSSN
Chain of Serine/threonine-protein kinase MAK (Homo sapiens) (P20794 whole entry): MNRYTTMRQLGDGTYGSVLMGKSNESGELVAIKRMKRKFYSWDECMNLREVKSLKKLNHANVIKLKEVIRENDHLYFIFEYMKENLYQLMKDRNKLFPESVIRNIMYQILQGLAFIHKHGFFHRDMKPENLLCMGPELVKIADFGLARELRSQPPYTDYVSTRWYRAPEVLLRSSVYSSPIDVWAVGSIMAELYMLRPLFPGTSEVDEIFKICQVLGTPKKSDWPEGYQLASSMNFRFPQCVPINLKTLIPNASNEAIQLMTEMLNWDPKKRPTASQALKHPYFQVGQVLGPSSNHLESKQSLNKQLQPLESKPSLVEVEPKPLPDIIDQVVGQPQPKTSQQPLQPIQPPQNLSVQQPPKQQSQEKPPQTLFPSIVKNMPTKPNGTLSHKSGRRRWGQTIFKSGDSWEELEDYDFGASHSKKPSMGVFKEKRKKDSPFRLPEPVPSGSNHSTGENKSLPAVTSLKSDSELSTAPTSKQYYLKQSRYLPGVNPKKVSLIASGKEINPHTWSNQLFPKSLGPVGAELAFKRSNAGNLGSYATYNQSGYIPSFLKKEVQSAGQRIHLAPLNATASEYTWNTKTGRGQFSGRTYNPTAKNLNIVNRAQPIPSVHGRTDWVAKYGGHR
Chain of 5-hydroxytryptamine receptor 1D (Homo sapiens) (P28221 whole entry): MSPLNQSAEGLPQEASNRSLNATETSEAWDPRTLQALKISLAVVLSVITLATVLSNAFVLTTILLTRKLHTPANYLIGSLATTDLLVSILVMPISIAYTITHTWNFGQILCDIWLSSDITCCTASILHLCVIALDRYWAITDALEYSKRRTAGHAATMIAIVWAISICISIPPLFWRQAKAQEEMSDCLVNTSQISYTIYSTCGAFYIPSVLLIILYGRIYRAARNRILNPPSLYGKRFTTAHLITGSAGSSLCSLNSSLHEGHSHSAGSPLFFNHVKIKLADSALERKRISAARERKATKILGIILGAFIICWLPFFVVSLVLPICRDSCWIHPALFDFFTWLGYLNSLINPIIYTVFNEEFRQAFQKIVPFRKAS
Chain of Tyrosine-protein kinase Yes (Homo sapiens) (P07947 2-543 limits assumed): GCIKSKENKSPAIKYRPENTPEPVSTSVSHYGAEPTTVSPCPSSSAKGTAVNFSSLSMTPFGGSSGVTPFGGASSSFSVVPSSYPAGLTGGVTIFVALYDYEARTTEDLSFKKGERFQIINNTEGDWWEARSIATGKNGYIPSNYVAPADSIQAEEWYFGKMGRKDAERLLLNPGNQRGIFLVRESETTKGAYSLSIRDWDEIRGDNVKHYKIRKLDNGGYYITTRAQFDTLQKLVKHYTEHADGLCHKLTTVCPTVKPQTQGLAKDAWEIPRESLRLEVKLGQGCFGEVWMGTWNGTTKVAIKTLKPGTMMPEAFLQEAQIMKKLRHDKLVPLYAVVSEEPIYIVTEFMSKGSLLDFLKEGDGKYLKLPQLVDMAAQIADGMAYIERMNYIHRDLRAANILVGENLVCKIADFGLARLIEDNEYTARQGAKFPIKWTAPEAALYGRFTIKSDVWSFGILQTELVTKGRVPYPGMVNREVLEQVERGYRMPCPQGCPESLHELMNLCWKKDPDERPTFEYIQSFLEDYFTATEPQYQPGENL
Chain of Serine/threonine-protein kinase Nek11 (Homo sapiens) (Q8NG66 whole entry): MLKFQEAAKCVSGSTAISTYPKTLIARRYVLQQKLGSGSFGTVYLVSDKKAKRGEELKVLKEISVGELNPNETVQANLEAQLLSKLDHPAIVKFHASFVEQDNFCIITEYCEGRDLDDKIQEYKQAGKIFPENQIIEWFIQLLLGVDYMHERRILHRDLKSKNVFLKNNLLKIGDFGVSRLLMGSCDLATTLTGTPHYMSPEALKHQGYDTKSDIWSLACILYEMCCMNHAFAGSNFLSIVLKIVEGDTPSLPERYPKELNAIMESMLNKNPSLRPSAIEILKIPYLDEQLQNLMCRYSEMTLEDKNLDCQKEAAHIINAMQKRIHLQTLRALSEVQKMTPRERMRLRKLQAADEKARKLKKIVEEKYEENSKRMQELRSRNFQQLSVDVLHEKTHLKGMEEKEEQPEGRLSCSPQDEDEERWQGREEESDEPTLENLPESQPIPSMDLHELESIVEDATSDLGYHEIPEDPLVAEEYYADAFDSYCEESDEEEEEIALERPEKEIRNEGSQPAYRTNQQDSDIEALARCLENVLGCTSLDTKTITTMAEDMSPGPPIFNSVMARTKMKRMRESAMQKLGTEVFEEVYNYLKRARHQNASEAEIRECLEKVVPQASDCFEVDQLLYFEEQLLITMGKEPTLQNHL

CCS(=O)(=O)c1cc2cc(C[C@@](O)(CC(C)(C)c3ccc(F)cc3C(N)=O)C(F)(F)F)[nH]c2cn1
inactive: residual activity [1] 100% | residual activity [2] 50% | residual activity [3] 97% | residual activity [4] 51% | residual activity [5] 99% | inhibition [6] 4.85% | residual activity [7] 100% | inhibition [8] -3.13% | inhibition [9] 2.58% | residual activity [10] 83% | residual activity [11] 100% | residual activity [12] 70% | residual activity [13] 100% | residual activity [14] 77% | residual activity [15] 100% | residual activity [16] 100% | residual activity [17] 100% | residual activity [18] 92% | residual activity [19] 88% | residual activity [20] 100% | residual activity [21] 100% | residual activity [22] 100% | residual activity [23] 100% | residual activity [24] 100% | residual activity [25] 100% | residual activity [26] 88% | inhibition [27] 11.2% | residual activity [28] 100% | residual activity [29] 50% | residual activity [30] 100% | residual activity [31] 97% | residual activity [32] 76% | residual activity [33] 100% | residual activity [34] 90% | residual activity [35] 94% | inhibition [36] 7.98% | residual activity [37] 79% | residual activity [38] 100% | residual activity [39] 100% | residual activity [40] 100% | residual activity [41] 100% | residual activity [42] 69% | residual activity [43] 100% | residual activity [44] 98% | residual activity [45] 100% | inhibition [46] 0.63%

CCS(=O)(=O)c1cc2cc(C[C@](O)(CC(C)(C)c3ccc(F)cc3C(N)=O)C(F)(F)F)[nH]c2cn1
inactive: residual activity [1] 85% | residual activity [2] 80% | residual activity [3] 95% | residual activity [4] 100% | residual activity [5] 100% | inhibition [6] 9.55% | residual activity [7] 93% | inhibition [8] -3.78% | inhibition [9] -8.67% | residual activity [10] 99% | residual activity [11] 90% | residual activity [12] 82% | residual activity [13] 80% | residual activity [14] 100% | residual activity [15] 100% | residual activity [16] 100% | residual activity [17] 93% | residual activity [18] 100% | residual activity [19] 100% | residual activity [20] 94% | residual activity [21] 93% | residual activity [22] 78% | residual activity [23] 94% | residual activity [24] 100% | residual activity [25] 100% | residual activity [26] 100% | inhibition [27] 4.75% | residual activity [28] 100% | residual activity [29] 74% | residual activity [30] 100% | residual activity [31] 100% | residual activity [32] 74% | residual activity [33] 100% | residual activity [34] 100% | residual activity [35] 100% | inhibition [36] 5.54% | residual activity [37] 100% | residual activity [38] 93% | residual activity [39] 100% | residual activity [40] 100% | residual activity [41] 100% | residual activity [42] 84% | residual activity [43] 100% | residual activity [44] 100% | residual activity [45] 100% | inhibition [46] 13%
